In paper PMC7156458, “Synthetic biology based construction of biological activity-related library of fungal decalin-containing diterpenoid pyrones” (Nature Communications, 2020):

Biological target: Aβ42 (Homo sapiens, UniProt P05067)
Experiment: Th-T (thioflavin-T) assay of Aβ42 aggregation
Format: biochemical
Conditions: for Th-T fluorescence, mean of three wells: compound at 50

Sequence of Aβ42 (P05067 672-713): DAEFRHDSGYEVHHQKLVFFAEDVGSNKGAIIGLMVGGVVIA

C=C1CCC2C(C)(CCC=C(C)C)C(O)CCC2(C)C1Cc1c(OC)oc(C)c(C(=O)OC)c1=O (stereo not drawn) [Compound 14]
Th-T fluorescence, mean of three wells (reading M54 of time course): 4.776
Th-T fluorescence, mean of three wells (reading M55 of time course): 4.689
Th-T fluorescence, mean of three wells (reading M56 of time course): 4.625
Th-T fluorescence, mean of three wells (reading M57 of time course): 4.524
Th-T fluorescence, mean of three wells (reading M58 of time course): 4.45
Th-T fluorescence, mean of three wells (reading M59 of time course): 4.296
Th-T fluorescence, mean of three wells (reading M60 of time course): 4.2063
Th-T fluorescence, mean of three wells (reading M61 of time course): 4.042
Th-T fluorescence, mean of three wells (reading M62 of time course): 3.946
Th-T fluorescence of Aβ42 with compound, mean of three wells (Fig. 7a source data) (concentration 10, unit not given, time-course reading M129): 2.897
Th-T fluorescence of Aβ42 with compound, mean of three wells (Fig. 7a source data) (concentration 10, unit not given, time-course reading M130): 2.933
Th-T fluorescence of Aβ42 with compound, mean of three wells (Fig. 7a source data) (concentration 10, unit not given, time-course reading M131): 2.925
Th-T fluorescence of Aβ42 with compound, mean of three wells (Fig. 7a source data) (concentration 10, unit not given, time-course reading M132): 2.913
Th-T fluorescence of Aβ42 with compound, mean of three wells (Fig. 7a source data) (concentration 10, unit not given, time-course reading M133): 2.914
Th-T fluorescence of Aβ42 with compound, mean of three wells (Fig. 7a source data) (concentration 10, unit not given, time-course reading M134): 2.928
Th-T fluorescence of Aβ42 with compound, mean of three wells (Fig. 7a source data) (concentration 10, unit not given, time-course reading M135): 2.926
Th-T fluorescence of Aβ42 with compound, mean of three wells (Fig. 7a source data) (concentration 10, unit not given, time-course reading M136): 2.935
Th-T fluorescence of Aβ42 with compound, mean of three wells (Fig. 7a source data) (concentration 10, unit not given, time-course reading M137): 2.902
Th-T fluorescence of Aβ42 with compound, mean of three wells (Fig. 7a source data) (concentration 10, unit not given, time-course reading M138): 2.929
Th-T fluorescence of Aβ42 with compound, mean of three wells (Fig. 7a source data) (concentration 10, unit not given, time-course reading M139): 2.934
Th-T fluorescence of Aβ42 with compound, mean of three wells (Fig. 7a source data) (concentration 10, unit not given, time-course reading M140): 2.924
Th-T fluorescence of Aβ42 with compound, mean of three wells (Fig. 7a source data) (concentration 10, unit not given, time-course reading M141): 2.927
Th-T fluorescence of Aβ42 with compound, mean of three wells (Fig. 7a source data) (concentration 10, unit not given, time-course reading M142): 2.953
Th-T fluorescence of Aβ42 with compound, mean of three wells (Fig. 7a source data) (concentration 10, unit not given, time-course reading M143): 2.943
Th-T fluorescence of Aβ42 with compound, mean of three wells (Fig. 7a source data) (concentration 10, unit not given, time-course reading M144): 2.936
Th-T fluorescence of Aβ42 with compound, mean of three wells (Fig. 7a source data) (concentration 10, unit not given, time-course reading M145): 2.952
Th-T fluorescence of Aβ42 with compound, mean of three wells (Fig. 7a source data) (concentration 20, unit not given, time-course reading M129): 1.587
Th-T fluorescence of Aβ42 with compound, mean of three wells (Fig. 7a source data) (concentration 20, unit not given, time-course reading M130): 1.596
Th-T fluorescence of Aβ42 with compound, mean of three wells (Fig. 7a source data) (concentration 20, unit not given, time-course reading M131): 1.618
Th-T fluorescence of Aβ42 with compound, mean of three wells (Fig. 7a source data) (concentration 20, unit not given, time-course reading M132): 1.578
Th-T fluorescence of Aβ42 with compound, mean of three wells (Fig. 7a source data) (concentration 20, unit not given, time-course reading M133): 1.602
Th-T fluorescence of Aβ42 with compound, mean of three wells (Fig. 7a source data) (concentration 20, unit not given, time-course reading M134): 1.594
Th-T fluorescence of Aβ42 with compound, mean of three wells (Fig. 7a source data) (concentration 20, unit not given, time-course reading M135): 1.594
Th-T fluorescence of Aβ42 with compound, mean of three wells (Fig. 7a source data) (concentration 20, unit not given, time-course reading M136): 1.5818
Th-T fluorescence of Aβ42 with compound, mean of three wells (Fig. 7a source data) (concentration 20, unit not given, time-course reading M137): 1.578
Th-T fluorescence of Aβ42 with compound, mean of three wells (Fig. 7a source data) (concentration 20, unit not given, time-course reading M138): 1.586
Th-T fluorescence of Aβ42 with compound, mean of three wells (Fig. 7a source data) (concentration 20, unit not given, time-course reading M139): 1.563
Th-T fluorescence of Aβ42 with compound, mean of three wells (Fig. 7a source data) (concentration 20, unit not given, time-course reading M140): 1.578
Th-T fluorescence of Aβ42 with compound, mean of three wells (Fig. 7a source data) (concentration 20, unit not given, time-course reading M141): 1.561
Th-T fluorescence of Aβ42 with compound, mean of three wells (Fig. 7a source data) (concentration 20, unit not given, time-course reading M142): 1.586
Th-T fluorescence of Aβ42 with compound, mean of three wells (Fig. 7a source data) (concentration 20, unit not given, time-course reading M143): 1.575
Th-T fluorescence of Aβ42 with compound, mean of three wells (Fig. 7a source data) (concentration 20, unit not given, time-course reading M144): 1.583
Th-T fluorescence of Aβ42 with compound, mean of three wells (Fig. 7a source data) (concentration 20, unit not given, time-course reading M145): 1.572
Th-T fluorescence of Aβ42 with compound, mean of three wells (Fig. 7a source data) (concentration 50, unit not given, time-course reading M129): 0.8842
Th-T fluorescence of Aβ42 with compound, mean of three wells (Fig. 7a source data) (concentration 50, unit not given, time-course reading M130): 0.8634
Th-T fluorescence of Aβ42 with compound, mean of three wells (Fig. 7a source data) (concentration 50, unit not given, time-course reading M131): 0.8505
Th-T fluorescence of Aβ42 with compound, mean of three wells (Fig. 7a source data) (concentration 50, unit not given, time-course reading M132): 0.8369
Th-T fluorescence of Aβ42 with compound, mean of three wells (Fig. 7a source data) (concentration 50, unit not given, time-course reading M133): 0.8131
Th-T fluorescence of Aβ42 with compound, mean of three wells (Fig. 7a source data) (concentration 50, unit not given, time-course reading M134): 0.8297
Th-T fluorescence of Aβ42 with compound, mean of three wells (Fig. 7a source data) (concentration 50, unit not given, time-course reading M135): 0.8031
Th-T fluorescence of Aβ42 with compound, mean of three wells (Fig. 7a source data) (concentration 50, unit not given, time-course reading M136): 0.8035
Th-T fluorescence of Aβ42 with compound, mean of three wells (Fig. 7a source data) (concentration 50, unit not given, time-course reading M137): 0.7873
Th-T fluorescence of Aβ42 with compound, mean of three wells (Fig. 7a source data) (concentration 50, unit not given, time-course reading M138): 0.78
Th-T fluorescence of Aβ42 with compound, mean of three wells (Fig. 7a source data) (concentration 50, unit not given, time-course reading M139): 0.7658
Th-T fluorescence of Aβ42 with compound, mean of three wells (Fig. 7a source data) (concentration 50, unit not given, time-course reading M140): 0.7572
Th-T fluorescence of Aβ42 with compound, mean of three wells (Fig. 7a source data) (concentration 50, unit not given, time-course reading M141): 0.7413
Th-T fluorescence of Aβ42 with compound, mean of three wells (Fig. 7a source data) (concentration 50, unit not given, time-course reading M142): 0.7418
